# Experimental data: ChEMBL document CHEMBL6103573, “Discovery of novel thienopyridine indole derivatives as inhibitors of tubulin polymerization targeting the colchicine-binding site with potent anticancer activities” (Eur J Med Chem, 2025)
# pIC50: −log10 of the molar value. Activity calls are given as the source filed them. The rule behind the calls is not given here.
# Legend:
# Tubulin (Homo sapiens) [1] = molecular target: T1, Tubulin (Homo sapiens) (UniProt P68371+Q9H4B7+P0DPH7+P68366+Q13509+Q71U36+P04350+Q3ZCM7+P07437+P68363+Q9BQE3+Q6PEY2+Q13885+Q9BVA1+Q9BUF5); assay: Disruption of microtubule network in human MGC-803 cells assessed as reduction in filamentous microtubule structure formation at 0.25 to 2.0 nmol/L incubated for 24 hrs by DAPI staining based fluorescence microscopic analysis; type: cell-based; settings: dose 0.25-2 nmol/L
# HGC-27 [2] = assay: Induction of apoptosis in human HGC-27 cells assessed as early apoptotic cells at 0.5 nmol/L incubated for 48 hrs by Annexin V-FITC/propidium iodide staining based flow cytometry analysis (reference value: 2.04 %); type: functional
# MGC-803 [3] = assay: Induction of cell cycle arrest in human MGC-803 cells assessed as accumulation of cells at G2/M phase at 2 nmol/L incubated for 24 hrs by RNase A/propidium iodide staining based flow cytometric analysis relative to control; type: functional
# MGC-803 [4] = assay: Antitumor activity against human MGC-803 cells xenografted in female BALB/c-nu nude mouse assessed as tumor inhibition rate at 5 mg/kg, po administrated every other day for 11 times and measured after 21 days relative to control; type: functional; settings: MGC-803, 504 h, time 21 day, read-out: TGI
# MGC-803 [5] = assay: Antitumor activity against human MGC-803 cells xenografted in female BALB/c-nu nude mouse assessed as increase in p-Histone H3 level in tumor at 5 mg/kg, po administrated every other day for 11 times and measured after 21 days by immunohistochemical analysis; type: functional, organism-based; settings: time 21.0 day
# HGC-27 [6] = assay: Induction of cell cycle arrest in human HGC-27 cells assessed as downregulation of Cdc2 phosphorylation at Tyr15 residue measured after 48 hrs by Western blot analysis; type: functional, cell-based; settings: dose 0.25-2 nmol/L
# MGC-803 [7] = assay: Induction of cell cycle arrest at G2 phase in human MGC-803 cells assessed as downregulation of Cyclin B1 level at 0.25 to 2.0 nmol/L measured after 48 hrs by Western blot analysis; type: functional, cell-based; settings: dose 0.25-2 nmol/L
# HGC-27 [8] = assay: Induction of apoptosis in human HGC-27 cells assessed as increase in cleaved Caspase-3 expression at 0.25 to 2.0 nmol/L incubated for 48 hrs by Western blotting analysis; type: functional, cell-based; settings: dose 0.25-2 nmol/L
# HGC-27 [9] = assay: Induction of apoptosis in human HGC-27 cells assessed as increase in cleaved Caspase-7 expression at 0.25 to 2.0 nmol/L incubated for 48 hrs by Western blotting analysis; type: functional, cell-based; settings: dose 0.25-2 nmol/L
# MGC-803 [10] = assay: Induction of apoptosis in human MGC-803 cells assessed as early apoptotic cells at 1.5 nmol/L incubated for 48 hrs by Annexin V-FITC/propidium iodide staining based flow cytometry analysis (reference value: 0.83 %); type: functional
# HGC-27 [11] = assay: Inhibition of colony formation in human HGC-27 cells at 0.5 nmol/L incubated for 7 days by crystal violet staining based colony formation assay relative to control; type: functional; settings: HGC-27, 168 h, time 7 day
# MGC-803 [12] = assay: Induction of apoptosis in human MGC-803 cells assessed as increase in cleaved Caspase-3 expression at 0.25 to 2.0 nmol/L incubated for 48 hrs by Western blotting analysis; type: functional, cell-based; settings: dose 0.25-2 nmol/L
# HGC-27 [13] = assay: Anti-migratory activity against human HGC-27 cells assessed as reduction in wound healing area measured after 24 hrs by wound healing assay; type: functional, cell-based; settings: dose 0.5-1 nmol/L
# HGC-27 [14] = assay: Induction of apoptosis in human HGC-27 cells assessed as appearance of round cells at 0.25 to 2.0 nmol/L incubated for 48 hrs by bright field microscopic analysis; type: functional, cell-based; settings: dose 0.25-2 nmol/L
# MGC-803 [15] = assay: Induction of apoptosis in human MGC-803 cells assessed as cell rupture at 0.25 to 2.0 nmol/L incubated for 48 hrs by bright field microscopic analysis; type: functional, cell-based; settings: dose 0.25-2 nmol/L
# MGC-803 [16] = assay: Anti-migratory activity against human MGC-803 cells assessed as reduction in wound healing area measured after 24 hrs by wound healing assay; type: functional, cell-based; settings: dose 0.5-1 nmol/L
# HUVEC = assay: Anti-vascular activity in HUVEC cells assessed as reduction in width of tubular network incubated for 5 hrs by Matrigel based inverted microscopic analysis; type: functional, cell-based; settings: Homo sapiens, dose 0.5-2 nmol/L
# [17] = molecular target: Tubulin beta (Homo sapiens) (UniProt P68371+Q9H4B7+Q13509+P04350+Q3ZCM7+P07437+Q13885+Q9BVA1+Q9BUF5+A6NNZ2); assay: Competitive binding affinity to beta-tubulin colchicine binding site in human MGC-803 cells assessed as inhibition of EBI-beta-tubulin adduct band formation by measuring reduction in adduct band intensity preincubated for 2 hrs followed by EBI addition and measured after 2 hrs by Western blotting analysis; type: cell-based; settings: dose 0.1-1 µmol/L, time 4.0 hrs
# HGC-27 [18] = assay: Antiproliferative activity against human HGC-27 cells assessed as reduction in cell viability at 0.25 to 2.0 nmol/L by MTT assay; type: functional, cell-based; settings: dose 0.25-2 nmol/L, time 6-48 hrs
# MGC-803 [19] = assay: Induction of cell cycle arrest at G2 phase in human MGC-803 cells assessed as increase in p-Histone H3 level at 0.25 to 2.0 nmol/L measured after 48 hrs by Western blot analysis; type: functional, cell-based; settings: dose 0.25-2 nmol/L
# HGC-27 [20] = assay: Induction of apoptosis in human HGC-27 cells assessed as increase in nuclei brightness at 0.25 to 2.0 nmol/L incubated for 48 hrs by DAPI staining based analysis; type: functional, cell-based; settings: dose 0.25-2 nmol/L
# Tubulin (Homo sapiens) [21] = molecular target: T1, Tubulin (Homo sapiens); assay: Disruption of microtubule network in human HGC-27 cells assessed as appearance of multinucleation at 0.25 to 2.0 nmol/L incubated for 24 hrs by DAPI staining based fluorescence microscopic analysis; type: cell-based; settings: dose 0.25-2 nmol/L
# HGC-27 [22] = assay: Antiproliferative activity against human HGC-27 cells assessed as inhibition of cell proliferation incubated for 48 hrs by MTT assay; type: functional, cell-based; settings: HGC-27, 48 h
# HGC-27 [23] = assay: Induction of apoptosis in human HGC-27 cells assessed as early apoptotic cells at 1.5 nmol/L incubated for 48 hrs by Annexin V-FITC/propidium iodide staining based flow cytometry analysis (reference value: 2.04 %); type: functional
# HGC-27 [24] = assay: Induction of apoptosis in human HGC-27 cells assessed as late apoptotic cells at 2.0 nmol/L incubated for 48 hrs by Annexin V-FITC/propidium iodide staining based flow cytometry analysis (reference value: 3.70 %); type: functional
# [25] = Toxicity in female BALB/c-nu nude mouse xenografted with human MGC-803 cells assessed as change in heart morphology at 5 mg/kg, po administrated every other day for 11 times and measured after 21 days by hematoxylin and eosin staining based analysis; type: organism-based; settings: in vivo, 504 h, time 21 day
# HGC-27 [26] = assay: Induction of apoptosis in human HGC-27 cells assessed as early apoptotic cells at 1.0 nmol/L incubated for 48 hrs by Annexin V-FITC/propidium iodide staining based flow cytometry analysis (reference value: 2.04 %); type: functional
# MGC-803 [27] = assay: Antiproliferative activity against human MGC-803 cells assessed as survival rate at 2 nmol/L measured after 6 hrs by MTT assay relative to control; type: functional; settings: read-out: Survival
# HGC-27 [28] = assay: Antiproliferative activity against human HGC-27 cells assessed as reduction in cell viability incubated for 48 hrs by MTT assay; type: functional, cell-based; settings: dose 0.25-10 nmol/L
# Tubulin = assay: Inhibition of tubulin (unknown origin) polymerization assessed as decrease in fluorescence intensity in presence of GTP by fluorescence microplate reader; type: protein-complex assay, Homo sapiens
# MGC-803 [29] = assay: Induction of apoptosis in human MGC-803 cells assessed as increase in cleaved Caspase-9 expression at 0.25 to 2.0 nmol/L incubated for 48 hrs by Western blotting analysis; type: functional, cell-based; settings: dose 0.25-2 nmol/L
smiles,measurement,setting,value
CN(c1ccc2c(ccn2C)c1)c1nc(N2CCCC2)nc2sccc12,Activity,Tubulin (Homo sapiens) [1],Active
same,Activity,HGC-27 [2],4.64%
same,Activity,MGC-803 [3],28.5%
same,inhibition in vivo at 5 mg/kg,MGC-803 [4],45.8%
same,Activity,MGC-803 [5],Active
same,Activity,HGC-27 [6],Dose-dependent-effect
same,Activity,MGC-803 [7],Active
same,Activity,HGC-27 [8],Active
same,Activity,HGC-27 [9],Active
same,Activity,MGC-803 [10],43.09%
same,inhibition at 0.0005 µM,HGC-27 [11],> 90%
same,Activity,MGC-803 [12],Active
same,Activity,HGC-27 [13],Dose-dependent-effect
same,Activity,HGC-27 [14],Active
same,Activity,MGC-803 [15],Active
same,Activity,MGC-803 [16],Dose-dependent-effect
same,Activity,HUVEC,Dose-dependent-effect
same,Activity,[17],Dose-dependent-effect
same,Activity,HGC-27 [18],Time-dependent-effect
same,Activity,MGC-803 [19],Active
same,Activity,HGC-27 [20],Active
same,Activity,Tubulin (Homo sapiens) [21],Active
same,pIC50,HGC-27 [22],8.74
same,Activity,HGC-27 [23],15.58%
same,Activity,HGC-27 [24],5.64%
same,Activity,[25],Non-toxic
same,Activity,HGC-27 [26],11.52%
same,viability at 0.002 µM,MGC-803 [27],86%
same,Activity,HGC-27 [28],Dose-dependent-effect
same,pIC50,Tubulin,5.60
same,Activity,MGC-803 [29],Active
